Measured values reported in the Kinase Knowledgebase extract (Sharma et al. 2016).

Key:
MAPK14 (human) [1] = target: MAPK14 (human) (UniProt Q16539); experiment: Inhibition of MAPK14 Kinase Activity by Fluorescence Anisotropy Kinase Binding Assay
MAPK14 (human) [2] = target: MAPK14 (human) (UniProt Q16539); experiment: Inhibition of MAPK14 Kinase Activity

Sequence of MAPK14 (human) (Q16539 whole entry, looked up): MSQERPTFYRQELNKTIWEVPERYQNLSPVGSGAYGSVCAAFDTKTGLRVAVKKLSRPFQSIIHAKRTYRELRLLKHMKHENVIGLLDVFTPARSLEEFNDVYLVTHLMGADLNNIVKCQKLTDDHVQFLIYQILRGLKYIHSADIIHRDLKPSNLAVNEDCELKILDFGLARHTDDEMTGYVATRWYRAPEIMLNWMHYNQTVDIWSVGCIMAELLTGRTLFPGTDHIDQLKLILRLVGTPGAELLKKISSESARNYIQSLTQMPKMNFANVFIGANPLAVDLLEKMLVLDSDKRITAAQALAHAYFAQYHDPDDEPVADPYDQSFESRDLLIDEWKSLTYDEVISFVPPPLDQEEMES

Structure (SMILES) | IC50 (MAPK14 (human) [1]) [nM] | IC50 (MAPK14 (human) [2]) [nM]
C[C@@H](CO)Nc1nc(-c2ccc(F)cc2F)c2ccc(=O)n(-c3ccc(F)cc3)c2n1 | < 1000 | –
O=c1ccc2c(-c3ccc(F)cc3F)nc(NC(CO)CO)nc2n1-c1ccc(F)cc1F | < 1000 | < 10000
O=c1ccc2c(-c3ccc(F)cc3)nc(NC(CO)CO)nc2n1-c1c(F)cc(F)cc1F | < 1000 | –
O=c1ccc2c(-c3ccc(F)cc3Cl)nc(NC(CO)CO)nc2n1-c1ccc(F)cc1F | < 1000 | –
O=c1ccc2c(-c3ccc(F)cc3F)nc(NC(CO)CO)nc2n1-c1c(F)cc(F)cc1F | < 1000 | < 10000
O=c1ccc2c(-c3ccccc3F)nc(NC(CO)CO)nc2n1-c1c(F)cc(F)cc1F | < 1000 | < 10000
O=c1ccc2c(-c3ccc(F)cc3F)nc(NC(CO)CO)nc2n1-c1cccc(F)c1F | < 1000 | –
